This experiment concerns the target T1, Diacylglycerol O-acyltransferase 2 (Homo sapiens, UniProt Q96PD7).
T1 sequence (Q96PD7 whole entry): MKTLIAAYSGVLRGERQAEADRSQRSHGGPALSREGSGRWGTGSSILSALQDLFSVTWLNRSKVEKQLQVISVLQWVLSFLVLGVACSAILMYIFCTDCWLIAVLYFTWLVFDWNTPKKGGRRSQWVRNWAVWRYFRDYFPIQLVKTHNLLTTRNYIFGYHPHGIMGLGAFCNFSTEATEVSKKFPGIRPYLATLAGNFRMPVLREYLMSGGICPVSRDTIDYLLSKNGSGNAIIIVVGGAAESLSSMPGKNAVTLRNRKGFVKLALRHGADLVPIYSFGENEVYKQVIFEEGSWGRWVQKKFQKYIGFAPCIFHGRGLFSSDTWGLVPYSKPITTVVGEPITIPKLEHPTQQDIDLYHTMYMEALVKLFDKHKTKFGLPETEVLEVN
Briefly: DGAT2 Enzymatic Activity Assay. The method, then:
DGAT2 activity was determined by measuring the amount of enzymatic product 13C18-triolein (13C-1,2,3-Tri(cis-9-octadecenoyl)glycerol) using the membrane prep mentioned above. The assay was carried out in ABgene 384-well assay plates in a final volume of 25 uL at rt.

As usually defined, the IC50 is the concentration needed to halve the response being measured. A high value points to lower potency. With `O=C(NC1CN(C(=O)C(F)(F)F)C1)c1nc2ccc(Oc3ncc(Cl)cc3OCC(F)(F)F)cc2o1` [US20240254114, Example 8], the IC50 turned out to be 1010 nM.
